In this assay the target is T1, PhoP (Salmonella enterica I, UniProt A6XC03).
T1 sequence (A6XC03 whole entry): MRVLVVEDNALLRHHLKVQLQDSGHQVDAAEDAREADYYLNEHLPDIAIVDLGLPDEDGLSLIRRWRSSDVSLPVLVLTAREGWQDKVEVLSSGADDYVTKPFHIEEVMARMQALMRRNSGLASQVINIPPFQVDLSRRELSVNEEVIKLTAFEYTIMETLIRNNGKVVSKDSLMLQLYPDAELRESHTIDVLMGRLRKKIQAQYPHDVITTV
The assay can be described thus: Inhibition Assay. An excerpt: Inhibition of a protein-protein activity by EMSA assay.

Results on 8 molecules are retold here after BindingDB's records for doi:10.1111/j.1747-0285.2012.01362.x (Washington University, 2012).

In turn, `CN(C)CCC(=O)C1(O)CCC2C3CC=C4CC(O)CCC4(C)C3CCC21C` (stereo not drawn) [NSC48630, 3] had an IC50 of 3.6 µM. The figure for `c1ccc(C[n+]2cccc(-c3cc4ccccc4[nH]3)c2)cc1` [NSC118806, 7] is 109 µM; for `O=C(C[n+]1ccc2ccccc2c1)c1ccc2ccc3ccccc3c2c1` [NSC35489, 4] it is 14000 µM; for `O=C1c2ccccc2C(=O)c2c1ccc(C(=O)O)c2-c1cccc2ccccc12` [NSC9608, 1] it is 11000 µM. The figure for `N#Cc1ccc(OC(=O)c2ccc(NC(=N)N)cc2)cc1` [NSC168197, 8] is 285 µM; for `CC12CCC(=O)C=C1CCC1C2CCC2(C)C(C(=O)COS(=O)(=O)c3ccc(Br)cc3)CCC12` (stereo not drawn) [NSC88915, 6] it is 17 µM; for `O=S(=O)(O)c1ccc2c(N=Nc3c(O)ccc4ccccc34)cccc2c1` [NSC45576, 2] it is 12 µM. The figure for `CC(C)c1ccc2c(c1)CCC1C(C)(CN)CCCC21C` (stereo not drawn) [NSC65238, 5] is 20 µM.
